In patent US20050261330A1, “Derivatives of 2,2,4-trisubstituted tetrahydrofuran an antifungal agents” (priority 2002, published 2005):
Values after ≈ are worked out from the molar mass of the structure shown.

Tests used:
[1] = test system: Cryptococcus neoformans I; assay: MIC, NCCLS M27A broth dilution; format: cell-based; conditions: RPMI 1640, MOPS pH 7
[2] = test system: Candida brusei ATCC 6258 (QC); assay: MIC, NCCLS M27A broth dilution; format: cell-based; conditions: RPMI 1640, MOPS pH 7
Candida glabrata 90030 = assay: MIC, NCCLS M27A broth dilution; format: cell-based; conditions: RPMI 1640, MOPS pH 7
[3] = test system: Candida albicans ATCC 36082; assay: MIC, NCCLS M27A broth dilution; format: cell-based; conditions: RPMI 1640, MOPS pH 7
[4] = test system: Aspergillus fumigatus Si-I; assay: MIC, NCCLS M38P broth dilution; format: cell-based; conditions: RPMI 1640, MOPS pH 7
Histoplasma capsulatum = format: cell-based; conditions: RPMI 1640, MOPS pH 7
Candida krusel 766.1 = assay: MIC, NCCLS M27A broth dilution; format: cell-based; conditions: RPMI 1640, MOPS pH 7
[5] = test system: Paecilomyces variotti ATCC 22319 (QC); assay: MIC, NCCLS broth dilution; format: cell-based; conditions: RPMI 1640, MOPS pH 7
[6] = test system: Candida parapsilosis ATCC 22019 (QC); assay: MIC, NCCLS M27A broth dilution; format: cell-based; conditions: RPMI 1640, MOPS pH 7
[7] = test system: Cryptococcus neoformans M 106; assay: MIC, NCCLS M27A broth dilution; format: cell-based; conditions: RPMI 1640, MOPS pH 7
[8] = test system: Candida tropicalis ATCC 750; assay: MIC, NCCLS M27A broth dilution; format: cell-based; conditions: RPMI 1640, MOPS pH 7
[9] = test system: Aspergillus fumigatus 1008; assay: MIC, NCCLS M38P broth dilution; format: cell-based; conditions: RPMI 1640, MOPS pH 7
Candida albicans Y-01-19 = assay: MIC, NCCLS M27A broth dilution; format: cell-based; conditions: RPMI 1640, MOPS pH 7
ergosterol P450DM [10] = biological target: T1, ergosterol P450DM (Candida albicans, UniProt P10613); conditions: C. albicans lysates; relative to fluconazole; cited from earlier work
T1 construct: host or cells: C. albicans lysates
T1 sequence (P10613 whole entry): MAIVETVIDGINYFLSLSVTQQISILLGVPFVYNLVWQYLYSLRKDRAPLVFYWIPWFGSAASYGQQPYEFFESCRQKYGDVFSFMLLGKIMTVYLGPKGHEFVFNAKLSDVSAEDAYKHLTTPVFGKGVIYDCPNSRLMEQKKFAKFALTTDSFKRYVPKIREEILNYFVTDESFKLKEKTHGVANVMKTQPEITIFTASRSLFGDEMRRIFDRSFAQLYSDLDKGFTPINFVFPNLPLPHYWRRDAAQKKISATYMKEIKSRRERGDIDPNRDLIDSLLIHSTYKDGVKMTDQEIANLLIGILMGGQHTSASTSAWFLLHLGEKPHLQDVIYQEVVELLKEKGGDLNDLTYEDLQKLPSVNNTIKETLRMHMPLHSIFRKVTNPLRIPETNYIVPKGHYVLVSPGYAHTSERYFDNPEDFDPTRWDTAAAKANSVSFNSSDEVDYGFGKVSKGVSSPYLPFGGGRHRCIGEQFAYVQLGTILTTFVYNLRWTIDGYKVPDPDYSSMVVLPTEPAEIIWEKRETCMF

ergosterol P450DM [11] = conditions: A. fumigatus lysates; relative to fluconazole; cited from earlier work
Candida albicans 1122 = assay: MIC, NCCLS M27A broth dilution; format: cell-based; conditions: RPMI 1640, MOPS pH 7
Candida albicans 1162 = assay: MIC, NCCLS M27A broth dilution; format: cell-based; conditions: RPMI 1640, MOPS pH 7

Row | Molecule | MIC [1] | MIC [2] | MIC (Candida glabrata 90030) | MIC [3] | MIC [4] | MIC (Histoplasma capsulatum) | MIC (Candida krusel 766.1) | MIC [5] | MIC [6] | MIC [7] | MIC [8] | MIC [9] | MIC (Candida albicans Y-01-19) | greater inhibition of ergosterol P450DM compared to fluconazole (ergosterol P450DM [10]) | greater inhibition of ergosterol P450DM compared to fluconazole (ergosterol P450DM [11]) | MIC (Candida albicans 1122) | MIC (Candida albicans 1162)
1 | O=c1n(-c2ccc(OCc3ccccc3)cc2)cnn1C[C@H]1CO[C@@](Cn2cncn2)(c2ccc(F)cc2F)C1 [Compound No. 6, 2-[(5R,3S)-5-(2,4-Difluorophenyl)-tetrahydro-5-(1H-1,2,4-triazol-1yl-methyl)-furan-3-yl-methyl]-4-[4-(benzyloxy)-phenyl]-2,4-dihydro-3(2H,4H)-1,2,4-triazolone] | 2 µg/mL (≈ 3.67 µM) | 4 µg/mL (≈ 7.35 µM) | 2 µg/mL (≈ 3.67 µM) | 0.03 µg/mL (≈ 0.0551 µM) | 16 µg/mL (≈ 29.4 µM) | 0.5 µg/mL (≈ 0.918 µM) | 8 µg/mL (≈ 14.7 µM) | 16 µg/mL (≈ 29.4 µM) | 0.25 µg/mL (≈ 0.459 µM) | 2 µg/mL (≈ 3.67 µM) | 0.06 µg/mL (≈ 0.11 µM) | 16 µg/mL (≈ 29.4 µM) | 1 µg/mL (≈ 1.84 µM) |  |  |  | 
2 | O=c1n(-c2ccc(Cn3cncn3)cc2)cnn1C[C@@H]1CO[C@@](Cn2cncn2)(c2ccc(F)cc2F)C1 [Compound No. 4] | 8 µg/mL (≈ 15.4 µM) | 16 µg/mL (≈ 30.8 µM) | 16 µg/mL (≈ 30.8 µM) | 2 µg/mL (≈ 3.85 µM) | 16 µg/mL (≈ 30.8 µM) | 16 µg/mL (≈ 30.8 µM) | 16 µg/mL (≈ 30.8 µM) | 16 µg/mL (≈ 30.8 µM) | 8 µg/mL (≈ 15.4 µM) | 8 µg/mL (≈ 15.4 µM) | 16 µg/mL (≈ 30.8 µM) | 16 µg/mL (≈ 30.8 µM) | 16 µg/mL (≈ 30.8 µM) |  |  |  | 
3 | O=c1n(-c2ccc(N3CCN(c4ccc(OCc5ccccc5)cc4)CC3)cc2)cnn1C[C@H]1CO[C@@](Cn2cncn2)(c2ccc(F)cc2F)C1 [Compound No. 7, 2-[(5R,3S)-5-(2,4-Difluorophenyl)-tetrahydro-5-(1H-1,2,4-triazol-1yl-methyl)-furan-3-yl-methyl]-4-{4-[4-[4-(benzyloxy)-phenyl]-1-piperazinyl]-phenyl}-2,4-dihydro-3(2H,4H)-1,2,4-triazolone] | 0.06 µg/mL (≈ 0.0851 µM) | 8 µg/mL (≈ 11.4 µM) | 16 µg/mL (≈ 22.7 µM) | < 0.03 µg/mL | 16 µg/mL (≈ 22.7 µM) | 16 µg/mL (≈ 22.7 µM) | 16 µg/mL (≈ 22.7 µM) | 1 µg/mL (≈ 1.42 µM) | 0.125 µg/mL (≈ 0.177 µM) | 0.125 µg/mL (≈ 0.177 µM) | 0.125 µg/mL (≈ 0.177 µM) | 16 µg/mL (≈ 22.7 µM) | 16 µg/mL (≈ 22.7 µM) |  |  |  | 
4 | O=c1n(-c2ccc(O)cc2)cnn1C[C@H]1CO[C@@](Cn2cncn2)(c2ccc(F)cc2F)C1 [Compound No. 3] | 8 µg/mL (≈ 17.6 µM) | 16 µg/mL (≈ 35.2 µM) | 16 µg/mL (≈ 35.2 µM) | 16 µg/mL (≈ 35.2 µM) | > 16 µg/mL | 16 µg/mL (≈ 35.2 µM) | 16 µg/mL (≈ 35.2 µM) | > 16 µg/mL | 16 µg/mL (≈ 35.2 µM) | 8 µg/mL (≈ 17.6 µM) | 16 µg/mL (≈ 35.2 µM) | > 16 µg/mL | 8 µg/mL (≈ 17.6 µM) |  |  |  | 
5 | 2-[(5R,3S)-5-(2,4-Difluorophenyl)-tetrahydro-5-(1H-1,2,4-triazol-1yl-methyl)-furan-3-yl-methyl]-4-[4-(phenyl)-1,2,4-triazol-1-yl]-2,4-dihydro-3(2H,4H)-1,2,4-triazolone [Compound No. 2] | 8 µg/mL | 8 µg/mL | 16 µg/mL | 0.125 µg/mL | 16 µg/mL | 16 µg/mL | 16 µg/mL | 8 µg/mL | 8 µg/mL | 8 µg/mL | 0.5 µg/mL | 16 µg/mL | 16 µg/mL |  |  |  | 
6 | 2-[(5R,3S)-5-(2,4-Difluorophenyl)-tetrahydro-5-(1H-1,2,4-triazol-1yl-methyl)-furan-3-yl-methyl]-4-{4-[4-(phenyl)-1-piperazinyl]-chlorophenyl}-2,4-dihydro-3(2H,4H-1,2,4-triazolone [Compound No. 5] | < 0.03 µg/mL | 0.25 µg/mL | 1 µg/mL | 0.03 µg/mL | 1 µg/mL | 0.25 µg/mL | 1 µg/mL | 1 µg/mL | 0.03 µg/mL | 0.125 µg/mL | 0.03 µg/mL | 2 µg/mL | 0.125 µg/mL |  |  |  | 
7 | C[C@@H](c1ncncc1F)[C@](O)(Cn1cncn1)c1ccc(F)cc1F [Voriconazole] |  |  |  |  |  |  |  |  |  |  |  |  |  | 1.6 fold | 160 fold |  | 
8 | O=c1n(-c2ccc(-n3cnnn3)cc2)cnn1C[C@@H]1CO[C@@](Cn2cncn2)(c2ccc(F)cc2F)C1 [Compound No. 9, 2-[(5R,3R)-5-(2,4-Difluorophenyl)-tetrahydro-5-(1H-1,2,4-triazol-1yl-methyl)-furan-3-yl-methyl]-4-[4-(1,2,3,4-tetrazol-1-yl)-phenyl]-2,4-dihydro-3(2H,4H)-1,2,4-triazolone] | 32 µg/mL (≈ 63.2 µM) | 64 µg/mL (≈ 126 µM) | 64 µg/mL (≈ 126 µM) |  | ≧128 g/ml | 64 µg/mL (≈ 126 µM) | 64 µg/mL (≈ 126 µM) | 32 µg/mL (≈ 63.2 µM) | 16 µg/mL (≈ 31.6 µM) | 8 µg/mL (≈ 15.8 µM) | 8 µg/mL (≈ 15.8 µM) | > 128 µg/mL | 64 µg/mL (≈ 126 µM) |  |  | 4 µg/mL (≈ 7.9 µM) | 64 µg/mL (≈ 126 µM)
